Data as given in patent publication US11001595B2, “Pyrimidine compounds and pyrimido indole compounds and methods of use” (Duquesne University of the Holy Spirit, priority 2014, dated 2021).
Where two headings read alike, the source gives them in different places.

How the values were obtained:
[1] = tested on: SK-OV-3 MDR-1-6/6 cells (P-gp expressing); conditions: Table 5, relative resistance SK-OV-3 MDR-1-6/6 vs SK-OV-3
Wild type HeLa cells = experiment: Antiproliferative effect, wild type HeLa, SRB assay (Section E); assay type: cell-based, human; conditions: read-out: IC50 ± SD Wild type HeLa
[2] = tested on: NCl/ADR-RES cells (Pgp overexpressing); experiment: Antiproliferative effect, Pgp overexpressing NCI/ADR-RES, SRB assay (Section E); conditions: for IC50: read-out: IC50 ± SD Pgp Overexpressing NCl/ADR-RES; for Rr: IC50 of Pgp overexpressing line divided by IC50 of parental OVCAR-8
SK-OV-3 cells [3] = experiment: Drug sensitivity in parental SK-OV-3 cells (Section A); assay type: cell-based; conditions: Homo sapiens, Table 5, parental line
HeLa cells [4] = experiment: Drug sensitivity in HeLa cells (Section A); assay type: cell-based; conditions: Homo sapiens, Table 6, parental line, read-out: IC50 ± SD in HeLa
OVCAR-8 cells = experiment: Antiproliferative effect, parental OVCAR-8, SRB assay (Section E); assay type: cell-based, human
[5] = tested on: HeLa WTβ-III cells (β-III tubulin expressing); experiment: Effect of β-III tubulin on drug sensitivity, HeLa WT β-III (Section A); assay type: cell-based; conditions: for Rr: Table 6, relative resistance HeLa WTβ-III vs HeLa
[6] = tested on: βIII Overexpressing HeLa cells; experiment: Antiproliferative effect, βIII overexpressing HeLa, SRB assay (Section E); assay type: cell-based, human; conditions: for IC50: SRB assay, read-out: IC50 ± SD βIII Overexpressing HeLa; for Rr: IC50 of β-III overexpressing HeLa divided by IC50 of parental HeLa
[7] = tested on: microtubules in A-10 cells; experiment: Microtubule depolymerization in A-10 cells (Section A); assay type: cell-based; conditions: Table 4, unit of column head (CA-4 row)
MDA-MB-435 cells = experiment: Inhibition of cell proliferation, MDA-MB-435 (Section A); assay type: cell-based, human; conditions: Table 4; read-out: IC50 ± SD in MDA-MB-435 Cells
recombinant pjDHFR = recombinant pjDHFR (Pneumocystis jirovecii (Human pneumocystis pneumonia agent), UniProt Q9UUP5); experiment: Inhibition of recombinant pjDHFR; assay type: biochemical; conditions: 37° C., 18 μM dihydrofolic acid
SK-OV-3 cells [8] = conditions: Table 2, parental line; cited from earlier work
HeLa cells [9] = conditions: Table 3, parental line; cited from earlier work
[10] = tested on: HeLa WTβ-III cells (β-III tubulin expressing); conditions: cited from earlier work
[11] = tested on: SK-OV-3 MDR-1-6/6 cells (P-gp expressing); conditions: cited from earlier work

`CC(=O)O[C@H]1C(=O)[C@@]2(C)[C@H]([C@H](OC(=O)c3ccccc3)[C@]3(O)C[C@H](OC(=O)[C@H](O)[C@@H](NC(=O)c4ccccc4)c4ccccc4)C(C)=C1C3(C)C)[C@]1(OC(C)=O)CO[C@@H]1C[C@@H]2O` [Paclitaxel] showed a Rr [1] of 240, an IC50 (Wild type HeLa cells; Homo sapiens, HeLa) of 5.3 ± 2 nM and an IC50 ([2]; Homo sapiens, NCI/ADR-RES) of 5000 nM. It also gave a Rr [2] of 500, an IC50 (SK-OV-3 cells [3]) of 5 ± 0.6 nM and an IC50 (HeLa cells [4]) of 2.8 ± 0.36 nM. It also gave an IC50 (OVCAR-8 cells; Homo sapiens, OVCAR-8, read-out: IC50 ± SD Parental OVCAR-8) of 10 nM, an IC50 ([5]; Homo sapiens, HeLa, Table 6, β-III tubulin expressing line, read-out: IC50 ± SD in HeLa WTβ-III) of 24 ± 3 nM and a Rr [5] of 8.6. The IC50 ([6]; Homo sapiens, HeLa) was 16 ± 1 nM and the Rr [6] was 3.01.

Work on `COc1ccc(/C=C\c2cc(OC)c(OC)c(OC)c2)cc1O` [CA-4, combretastatin A-4] yielded an EC50 [7] of 9.8 nM, an IC50 (MDA-MB-435 cells) of 4.4 ± 0.46 nM and an IC50 (Wild type HeLa cells) of 1.8 ± 0.4 nM. For the same compound, the Rr [2] was 1.5, the IC50 ([2]; SRB assay) was 9 ± 2 nM and the IC50 (OVCAR-8 cells; read-out: IC50 ± SD Parental OVCAR-8) was 6 ± 0.7 nM. The Rr [5] was 1, the Rr [6] was 1.38 and the IC50 [6] was 2.5 ± 0.7 nM.

In the case of `COc1cc(NCc2ccc3nc(N)nc(N)c3c2C)cc(OC)c1OC` [TMQ, Trimetrexate], the IC50 (recombinant pjDHFR) is reported as 2.1 nM.

For `COc1ccc(/C=C\c2cc(OC)c(OC)c(OC)c2)cc1OP(=O)(O)O` [CA4P, combretastatin A-4 phosphate], the IC50 (SK-OV-3 cells [8]) is given as 4.5 ± 0.2 nM, the IC50 (HeLa cells [9]) is given as 4.7 ± 0.2 nM and the Rr ([10]; Table 3, relative resistance WT β-III vs HeLa) is given as 1.2. The IC50 ([10]; Table 3, β-III tubulin expressing line, read-out: WT β-III IC50) was 5.7 ± 0.4 nM, the Rr ([11]; Table 2, relative resistance SK-OV-3 MDR-1-6/6 vs SK-OV-3) was 1.5 and the IC50 ([11]; read-out: SK-OV-3 MDR-1-6/6 IC50, Table 2, P-gp expressing line) was 6.6 ± 1.3 nM.
